{
  "source": "paper PMC3605511",
  "about": "“Tumor P-Glycoprotein Correlates with Efficacy of PF-3758309 in in vitro and in vivo Models of Colorectal Cancer” (Frontiers in Pharmacology, 2013)",
  "key": {"[1]": {"assay": "End of study tumor and plasma concentrations (LC/MS/MS)", "assay_type": "in vivo, mice", "settings": "for Plasma concentration / Tumor concentration / Tumor: plasma ratio / concentration at 1 h / Kp at 1 h: end of study, 1 h post treatment, individual animals; for Plasma concentration / Tumor concentration / concentration at 1 h: 25 mg/kg PO BID; for concentration at 1 h: po; for Kp at 1 h: tumor and plasma, read-out: Tumor: plasma ratio", "method": "Plasma and tumor samples were collected 1 h post treatment at the end of therapeutic studies or 6 h post treatment for P-gp tumor concentration studies. PF-309 was measured in mouse plasma and tumor tissue using a validated LC/MS/MS assay carried out by the University of Colorado Cancer Center Pharmacology Shared Resource. Positive ion electrospray ionization (ESI) mass spectra were obtained with a 3200 QTrap triple quadrupole mass spectrometer (Applied Biosystems Inc., Foster City, CA, USA) with a turboionspray source interfaced to an Agilent 1200 Series binary HPLC system (Agilent Technologies Inc., Santa Clara, CA, USA), and a HTC-PAL auto-sampler (LEAP Technologies, Carrboro, NC, USA). Samples were chromatographed with a Waters Sunfire 2.5 μm C18 column (4.6 × 50 mm; Waters Corp., Milford, MA, USA) with a Phenomenex C18 filter frit guard cartridge (Phenomenex, Torrance, CA, USA). The LC elution was done with a gradient starting at 10% Acetonitrile with 0.1% formic acid:90% 0.1% formic acid held for 1.5 min followed by a 1-min linear gradient to 98% Acetonitrile with 0.1% formic acid: 2% 0.1% formic acid at a flow rate of 750 μl/min and a sample volume of 50 μl. The total analysis time was 5.5 min.\nThe mass spectrometer settings were: source temperature, 600°C, ion spray voltage, 4500 V, source gas, 50, curtain gas (CUR), 10, collision gas (CAD), low, and needle position 3. Transition specific parameters used were 491.2 → 284.2/491.2 → 148.3/372.2 → 176.1: declustering potential (DP), 46.32/46.54/56.86 V, exit potential (EP), 6.45/3.23/4.08 V, collision cell entrance potential (CEP), 25.92/27.80/20.56 V, collision energy (CE), 40.00/53.10/32.75 V, collision cell exit potential (CXP), 0.42/1.47/2.72 V. Samples were quantified by the internal standard reference method in the MRM mode by monitoring for PF-3758309 transitions of m/z 491.2 → 284.2 and 491.2 → 148.3, and for the internal standard (trazodone) of m/z 372.2 → 176.1. Unknown, standard and quality control samples were extracted from mouse plasma or tumor homogenates (100 mg/ml) by the sequential addition of 5 μl 500 ng/ml internal standard (trazodone), 250 μl acetonitrile:methanol (3:1) to 50 μl plasma/tumor homogenate. Samples were then vortexed for 5 min followed by centrifugation for 10 min at 17,000 rpm. 200 μl of supernatant was then transferred to a microcentrifuge tube followed by the addition of 400 μl 0.1% formic acid followed by vortexing (5 min) and centrifugation (5 min at 13,300 rpm) and the supernatant collected (600 μl) and transferred to auto-sampler vials. The average accuracy and precision based on analysis of quality control samples was 93.1 and 98.7% for plasma samples (range: 1–2500 ng/mL) and 91.9 and 98.2% for tumor (range: 5–5000 ng/mL).\nIn addition to the cell line xenografts, we also treated 12 different patient derived tumor xenograft (PDTX) CRC models with PF-309 (Figure 6). We were unable to assess how ABCB1 gene expression correlated with efficacy in these models. The PDTX models are propagated in vivo, are not immortalized, and are not grown in in vitro culture. Therefore, we have observed some changes in ABCB1 gene expression in some of our models over time and the direction of the change is not consistent (data not shown). In lieu of analyzing gene expression profiles, we sought to determine if tumor concentration correlated with in vivo response. Tumor and plasma sample pairs were collected from animals at the end of study for eight tumor models (three cell line xenografts and five PDTX models) and concentrations of PF-309 were measured. […] Significant correlations (p < 0.003) were found between both tumor concentration and response and tumor to plasma ratios and response (Table 3)."}, "T84": {"test_system": "T84", "assay": "Cell proliferation assay, T84", "assay_type": "cell-based", "settings": "Homo sapiens; T84, PF-309 alone, 72 h; 1 uM was the maximum concentration used", "method": "Cytotoxic/proliferation effects were determined using the sulforhodamine B (SRB) assay (Skehan et al., [1990]) or by resazurin. Briefly, cells in logarithmic growth phase were transferred to 96 well flat bottom plates with lids. One-hundred microliter cell suspensions containing 1500–5000 viable cells were plated into each well and incubated overnight prior to exposure with increasing concentrations of PF-309 for 3–5 days, dependent upon cell type. Media was removed and cells were fixed with cold 10% trichloroacetic acid for 30 min at 4°C. Cells were then washed with water and stained with 0.4% SRB (Fisher Sci., Pittsburgh, PA, USA) for 30 min at room temperature, washed again with 1% acetic acid, followed by stain solubilization with 10 mM tris at room temperature. The plate was then read on a plate reader (Biotek Synergy 2, Winooski, VT, USA) set at an absorbance wavelength of 565 nm. Cell proliferation curves were derived from the raw absorbance (OD) data.\nSince PF-309 appeared to be a strong P-gp and BCRP substrates, we sought to evaluate if the transporters influenced sensitivity in vitro. We evaluated the sensitivity of CRC cell lines to PF-309 treatment in a panel of 27 lines. Cells were exposed to PF-309 at a range of concentrations for 72 h and cell content measured by SRB assay (see Pitts et al., [2013]). […]"}},
  "note": "Values joined by “and” are separate entries in the source; they are usually repeats but may differ in a detail not shown here. Identical values can stand only once. Like-named read-outs stand apart in the source and are kept apart here.",
  "data": [
    {"smiles": "Cc1nc(Nc2n[nH]c3c2CN(C(=O)N[C@H](CN(C)C)c2ccccc2)C3(C)C)c2sccc2n1", "note": "[PF-309]", "values": [
      {"measurement": "Plasma concentration", "setting": "[1]; CUCRC006 model, 25 mg/kg", "result": 24.4, "unit": "ng/mL"},
      {"measurement": "Tumor concentration", "setting": "[1]; CUCRC006 model, 25 mg/kg", "result": 3.4, "unit": "ng/g"},
      {"measurement": "Tumor: plasma ratio", "setting": "[1]; CUCRC006 model", "result": 0.14},
      {"measurement": "Plasma concentration", "setting": "[1]; CUCRC026 model, 25 mg/kg", "result": "25.4 ng/mL and 114 ng/mL and 69.3 ng/mL and 184 ng/mL"},
      {"measurement": "Tumor concentration", "setting": "[1]; CUCRC026 model, 25 mg/kg", "result": "6.4 ng/g and 14.5 ng/g and 22.7 ng/g and 16.8 ng/g"},
      {"measurement": "Tumor: plasma ratio", "setting": "[1]; CUCRC026 model", "result": "0.25 and 0.13 and 0.33 and 0.09"},
      {"measurement": "Plasma concentration", "setting": "[1]; CUCRC036 model, 25 mg/kg", "result": "40.6 ng/mL and 110 ng/mL and 81.3 ng/mL"},
      {"measurement": "Tumor concentration", "setting": "[1]; CUCRC036 model, 25 mg/kg", "result": "65.7 ng/g and 30.7 ng/g and 47.6 ng/g"},
      {"measurement": "Tumor: plasma ratio", "setting": "[1]; CUCRC036 model", "result": "1.62 and 0.28 and 0.59"},
      {"measurement": "Plasma concentration", "setting": "[1]; CUCRC042 model, 25 mg/kg", "result": "1.17 ng/mL and 4.58 ng/mL"},
      {"measurement": "Tumor concentration", "setting": "[1]; CUCRC042 model, 25 mg/kg", "result": 29.6, "unit": "ng/g"},
      {"measurement": "Tumor: plasma ratio", "setting": "[1]; CUCRC042 model", "result": "29.8 and 6.46"},
      {"measurement": "Plasma concentration", "setting": "[1]; CUCRC047 model, 25 mg/kg", "result": 98.7, "unit": "ng/mL"},
      {"measurement": "Tumor concentration", "setting": "[1]; CUCRC047 model, 25 mg/kg", "result": 7.5, "unit": "ng/g"},
      {"measurement": "Tumor: plasma ratio", "setting": "[1]; CUCRC047 model", "result": 0.08},
      {"measurement": "Plasma concentration", "setting": "[1]; Colo201 model, 25 mg/kg", "result": 11.7, "unit": "ng/mL"},
      {"measurement": "Tumor concentration", "setting": "[1]; Colo201 model, 25 mg/kg", "result": "140.4 ng/g and 11.1 ng/g"},
      {"measurement": "Tumor: plasma ratio", "setting": "[1]; Colo201 model", "result": "6.72 and 0.95"},
      {"measurement": "Plasma concentration", "setting": "[1]; GEO model, 25 mg/kg", "result": "5.48 ng/mL and 54.1 ng/mL and 76.6 ng/mL"},
      {"measurement": "Tumor concentration", "setting": "[1]; GEO model, 25 mg/kg", "result": "10.2 ng/g and 15.9 ng/g and 22.9 ng/g"},
      {"measurement": "Tumor: plasma ratio", "setting": "[1]; GEO model", "result": "1.9 and 0.3"},
      {"measurement": "Plasma concentration", "setting": "[1]; HCT15 model, 25 mg/kg", "result": "10.0 ng/mL and 13.2 ng/mL and 49.0 ng/mL"},
      {"measurement": "Tumor concentration", "setting": "[1]; HCT15 model, 25 mg/kg", "result": "8.9 ng/g and 8.0 ng/g"},
      {"measurement": "Tumor: plasma ratio", "setting": "[1]; HCT15 model", "result": "0.68 and 0.67 and 0.16"},
      {"measurement": "Cmax", "setting": "[1]; mouse, plasma, oral, 25 mg/kg, mice, Cmax (1 h), read-out: total plasma concentrations at the Cmax", "result": "10 to 100", "unit": "nM"},
      {"measurement": "concentration at 1 h", "setting": "[1]; mouse, plasma, 25 mg/kg, CUCRC006 model, read-out: Plasma concentration", "result": 42.4, "unit": "ng/mL"},
      {"measurement": "concentration at 1 h", "setting": "[1]; mouse, plasma, 25 mg/kg, CUCRC047 model, read-out: Plasma concentration", "result": 110, "unit": "ng/mL"},
      {"measurement": "concentration at 1 h", "setting": "[1]; mouse, plasma, 25 mg/kg, Colo201 model, read-out: Plasma concentration", "result": 20.9, "unit": "ng/mL"},
      {"measurement": "Kp at 1 h", "setting": "[1]; mouse, oral, 25 mg/kg, CUCRC006 model", "result": 0.08},
      {"measurement": "Kp at 1 h", "setting": "[1]; mouse, oral, 25 mg/kg, CUCRC047 model", "result": 0.04},
      {"measurement": "concentration at 1 h", "setting": "[1]; mouse, tumor, 25 mg/kg, CUCRC006 model, read-out: Tumor concentration", "result": 3.6, "unit": "ng/g"},
      {"measurement": "concentration at 1 h", "setting": "[1]; mouse, tumor, 25 mg/kg, CUCRC042 model, read-out: Tumor concentration", "result": 34.8, "unit": "ng/g"},
      {"measurement": "concentration at 1 h", "setting": "[1]; mouse, tumor, 25 mg/kg, CUCRC047 model, read-out: Tumor concentration", "result": 4.4, "unit": "ng/g"},
      {"measurement": "concentration at 1 h", "setting": "[1]; mouse, tumor, 25 mg/kg, HCT15 model, read-out: Tumor concentration", "result": 6.8, "unit": "ng/g"},
      {"measurement": "IC50", "setting": "T84", "result": "> 1000", "unit": "nM"}
    ]}
  ]
}
